Experiments:
[1] = Rothstein et al.; Lipski et al.; cited from earlier work
[2] = tested on: rats exhibiting learned helplessness (cLH rat line); assay: Learned helplessness testing (lever-press escape paradigm) of cLH rats pre- and post-treatment; assay type: in vivo; settings: oral diazoxide dissolved in NaOH, 10, 30 or 60 mg per day, three days
Procedure: At the age of 9 weeks, male rats are tested for learned helplessness. Testing consists of an escape paradigm, were 0.8 mA, 60 sec foot-shocks can be interrupted with a lever press. A trial not terminated within 20 seconds is considered a failure, and 10 or more failed trials out of 15 trials are treated as “helpless” phenotype. cNLH animals are exposed to a total of 20 unpredictable, unescapable foot-shocks (0.8 mA, 60 sec) 24 hours prior to testing. Five rats from the cLH rat line described in Example I are provided with orally administered diazoxide dissolved in NaOH over a period of three days. Two animals received 60 mg per day two received 30 mg, and one received 10 mg. Three rats in the control group received no treatment.

[3] = tested on: astrocyte glutamate transporters; settings: Sun et al.; cited from earlier work

SMILES	effectiveness in studies of neuroprotection [1]	number of lever presses post-treatment relative to pre-treatment [2]	stimulating the uptake of glutamate by astrocyte glutamate transporters [3]
CO/N=C(\C(=O)N[C@@H]1C(=O)N2C(C(=O)O)=C(CSc3nc(=O)c(=O)[nH]n3C)CS[C@H]12)c1csc(N)n1 [Ceftriaxone]	particularly effective	–	–
CC1=NS(=O)(=O)c2cc(Cl)ccc2N1 [diazoxide]	–	substantial increase in the number of lever presses	shown to be effective
CC(C)NC(C)(C)C(C)C [iptakalim]	–	–	shown to be effective
CC(N/C(=N\C#N)Nc1ccncc1)C(C)(C)C (centres unmarked) [pinacidil]	–	–	shown to be effective

Reference: patent US8415344B2, “Method of treating depression” (Brookhaven Science Associates, LLC, priority 2009, dated 2013)
